Experiments:
human OX1 receptors = target: T1, human OX1 receptors (Homo sapiens, UniProt O43613); test: Calcium mobilization Ke assay; format: cell-based; details: for OX2/OX1: ratio of Ke OX2 to Ke OX1 (table column)
T1 sequence (O43613 1-425): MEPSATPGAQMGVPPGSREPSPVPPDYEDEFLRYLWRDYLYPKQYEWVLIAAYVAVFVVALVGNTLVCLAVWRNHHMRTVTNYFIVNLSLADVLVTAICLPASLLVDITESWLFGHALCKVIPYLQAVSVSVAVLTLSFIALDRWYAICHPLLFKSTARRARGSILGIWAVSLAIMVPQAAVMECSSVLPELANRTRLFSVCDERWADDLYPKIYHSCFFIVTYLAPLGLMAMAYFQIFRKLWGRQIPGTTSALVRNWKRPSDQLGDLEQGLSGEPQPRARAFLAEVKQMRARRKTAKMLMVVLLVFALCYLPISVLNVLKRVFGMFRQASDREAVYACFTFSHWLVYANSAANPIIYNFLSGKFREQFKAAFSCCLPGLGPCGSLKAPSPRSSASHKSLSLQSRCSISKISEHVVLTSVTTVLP

human OX2 receptors = target: T2, human OX2 receptors (Homo sapiens, UniProt O43614); test: Calcium mobilization Ke assay; format: cell-based
T2 sequence (O43614 1-444): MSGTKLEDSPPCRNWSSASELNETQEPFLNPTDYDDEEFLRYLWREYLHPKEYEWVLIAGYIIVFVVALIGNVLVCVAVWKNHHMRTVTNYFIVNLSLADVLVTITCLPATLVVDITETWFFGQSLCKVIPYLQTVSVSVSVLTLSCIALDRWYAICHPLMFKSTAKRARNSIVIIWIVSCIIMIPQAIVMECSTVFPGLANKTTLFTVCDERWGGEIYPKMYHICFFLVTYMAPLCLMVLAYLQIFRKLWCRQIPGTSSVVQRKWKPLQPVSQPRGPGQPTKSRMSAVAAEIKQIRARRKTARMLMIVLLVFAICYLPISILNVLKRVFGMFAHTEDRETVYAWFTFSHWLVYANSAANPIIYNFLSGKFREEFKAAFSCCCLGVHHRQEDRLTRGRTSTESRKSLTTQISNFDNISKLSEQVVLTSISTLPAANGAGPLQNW

Sprague-Dawley rats = test: Locomotor activity and acute cocaine-induced hyperactivity; format: in vivo, rat; details: 10 mg/kg alone, i.p. (data not shown)
OX1 = details: cited from earlier work
[1] = administrated i.p.; cited from earlier work

Row | SMILES | OX2/OX1 (human OX1 receptors) | Kb (human OX2 receptors) [µM] | further results
1 | COc1cc(CC2c3cc(OC)c(OC)cc3CCN2CC(=O)NCc2ccccc2)ccc1O (centres unmarked) [Compound 12, N-Benzyl-2-{1-[(4-hydroxy-3-methoxyphenyl)methyl]-6,7-dimethoxy-1,2,3,4-tetrahydroisoquinolin-2-yl}acetamide] | >24 | > 10 | 
2 | CCCCOc1ccc(CC2c3cc(OC)c(OC)cc3CCN2CC(=O)NCc2ccccc2)cc1OC (centres unmarked) [Compound 13, N-Benzyl-2-{1-[(4-butoxy-3-methoxyphenyl)methyl]-6,7-dimethoxy-1,2,3,4-tetrahydroisoquinolin-2-yl}acetamide] | 42 | 2 ± 0.86 | 
3 | CCCCCCOc1ccc(CC2c3cc(OC)c(OC)cc3CCN2CC(=O)NCc2ccccc2)cc1OC (centres unmarked) [Compound 14, N-Benzyl-2-(1-{[4-(hexyloxy)-3-methoxyphenyl]methyl}-6,7-dimethoxy-1,2,3,4-tetrahydroisoquinolin-2-yl)acetamide] | >83 | > 10 | 
4 | CCCC(=O)Oc1ccc(CC2c3cc(OC)c(OC)cc3CCN2CC(=O)NCc2ccccc2)cc1OC (centres unmarked) [Compound 16, 4-({2-[(Benzylcarbamoyl)methyl]-6,7-dimethoxy-1,2,3,4-tetrahydroisoquinolin-1-yl}methyl)-2-methoxyphenyl butanoate] | 48 | 2.08 ± 0.6 | 
5 | COc1cc2c(cc1OC)C(Cc1ccc(OCc3ccccc3)c(OC)c1)N(CC(=O)NCc1ccccc1)CC2 (centres unmarked) [Compound 18, N-Benzyl-2-(1-{[4-(benzyloxy)-3-methoxyphenyl]methyl}-6,7-dimethoxy-1,2,3,4-tetrahydroisoquinolin-2-yl)acetamide] |  |  | decrease in OX1 potency compared to 11 (human OX1 receptors): 2 fold
6 | COc1cc2c(cc1OC)C(Cc1ccc(OS(=O)(=O)c3ccccc3)c(OC)c1)N(CC(=O)NCc1ccccc1)CC2 (centres unmarked) [Compound 23, 4-({2-[(Benzylcarbamoyl)methyl]-6,7-dimethoxy-1,2,3,4-tetrahydroisoquinolin-1-yl}methyl)-2-methoxyphenyl benzenesulfonate] |  |  | decrease in OX1 potency compared to 11 (human OX1 receptors): ~ 9 fold
7 | COc1cc2c(cc1OC)C(Cc1ccc(OC)c([N+](=O)[O-])c1)N(CC(=O)NCc1ccccc1)CC2 (centres unmarked) [Compound 26, N-Benzyl-2-{6,7-dimethoxy-1-[(4-methoxy-3-nitrophenyl)methyl]-1,2,3,4-tetrahydroisoquinolin-2-yl}acetamide] |  |  | decrease in OX1 potency compared to 11 (human OX1 receptors): ~ 7 fold
8 | COc1cc2c(cc1OC)C(Cc1ccc(OC)c(N(C)C)c1)N(CC(=O)NCc1ccccc1)CC2 (centres unmarked) [Compound 28, N-Benzyl-2-(1-{[3-(dimethylamino)-4-methoxyphenyl]methyl}-6,7-dimethoxy-1,2,3,4-tetrahydroisoquinolin-2-yl)acetamide] | 76.7 | 0.97 ± 0.35 | 
9 | CCNc1cc(CC2c3cc(OC)c(OC)cc3CCN2CC(=O)NCc2ccccc2)ccc1OC (centres unmarked) [Compound 29, N-Benzyl-2-(1-{[3-(ethylamino)-4-methoxyphenyl]methyl}-6,7-dimethoxy-1,2,3,4-tetrahydroisoquinolin-2-yl)acetamide] | >32 | > 10 | 
10 | CCN(CC)c1cc(CC2c3cc(OC)c(OC)cc3CCN2CC(=O)NCc2ccccc2)ccc1OC (centres unmarked) [Compound 30, N-Benzyl-2-(1-{[3-(diethylamino)-4-methoxyphenyl]methyl}-6,7-dimethoxy-1,2,3,4-tetrahydroisoquinolin-2-yl)acetamide] | >48 | > 10 | 
11 | CCCNc1cc(CC2c3cc(OC)c(OC)cc3CCN2CC(=O)NCc2ccccc2)ccc1OC (centres unmarked) [Compound 31, N-Benzyl-2-(6,7-dimethoxy-1-{[4-methoxy-3-(propylamino)phenyl]methyl}-1,2,3,4-tetrahydroisoquinolin-2-yl)acetamide] | >11 | > 10 | 
12 | COc1ccc(CC2c3cc(OC)c(OC)cc3CCN2CC(=O)NCc2ccccc2)cc1NCc1ccccc1 (centres unmarked) [Compound 33, N-Benzyl-2-(1-{[3-(benzylamino)-4-methoxyphenyl]methyl}-6,7-dimethoxy-1,2,3,4-tetrahydroisoquinolin-2-yl)acetamide] |  |  | OX1 antagonist activity in words (human OX1 receptors; at concentrations up to 10 μM): no activity
13 | COc1cc2c(cc1OC)C(Cc1cccc(OC(C)C)c1)N(CC(=O)NCc1ccccc1)CC2 (centres unmarked) [Compound 41, N-Benzyl-2-(6,7-dimethoxy-1-{[3-(propan-2-yloxy)phenyl]methyl}-1,2,3,4-tetrahydroisoquinolin-2-yl)acetamide] | >6.8 | > 10 | decrease in OX1 potency compared to 11 (human OX1 receptors): ~ 7 fold
14 | COc1cc2c(cc1OC)C(Cc1cccc([N+](=O)[O-])c1)N(CC(=O)NCc1ccccc1)CC2 (centres unmarked) [Compound 42, N-Benzyl-2-{6,7-dimethoxy-1-[(3-nitrophenyl)methyl]-1,2,3,4-tetrahydroisoquinolin-2-yl}acetamide] | <0.12 | 1.2 ± 0.16 | 
15 | COc1cc2c(cc1OC)C(Cc1cccc(N(C)C)c1)N(CC(=O)NCc1ccccc1)CC2 (centres unmarked) [Compound 44, N-Benzyl-2-(1-{[3-(dimethylamino)phenyl]methyl}-6,7-dimethoxy-1,2,3,4-tetrahydroisoquinolin-2-yl)acetamide] | 8.8 | 0.66 ± 0.16 | 
16 | CCCOc1ccc(CC2c3cc(OC)c(OC)cc3CCN2CC(=O)NCc2ccccc2)cc1 (centres unmarked) [Compound 45, N-Benzyl-2-{6,7-dimethoxy-1-[(4-propoxyphenyl)methyl]-1,2,3,4-tetrahydroisoquinolin-2-yl}acetamide] | >27 | > 10 | 
17 | COc1cc2c(cc1OC)C(Cc1ccc(OC(C)C)cc1)N(CC(=O)NCc1ccccc1)CC2 (centres unmarked) [Compound 46, N-Benzyl-2-(6,7-dimethoxy-1-{[4-(propan-2-yloxy)phenyl]methyl}-1,2,3,4-tetrahydroisoquinolin-2-yl)acetamide] | >20 | > 10 | 
18 | COc1cc2c(cc1OC)C(Cc1ccc(N(C)C)cc1)N(CC(=O)NCc1ccccc1)CC2 (centres unmarked) [Compound 48, N-Benzyl-2-(1-{[4-(dimethylamino)phenyl]methyl}-6,7-dimethoxy-1,2,3,4-tetrahydroisoquinolin-2-yl)acetamide] | >40 | > 10 | 
19 | COc1cc2c(cc1OC)C(Cc1ccc(C(C)C)cc1)N(CC(=O)NCc1ccccc1)CC2 (centres unmarked) [Compound 51, N-Benzyl-2-(6,7-dimethoxy-1-{[4-(propan-2-yl)phenyl]methyl}-1,2,3,4-tetrahydroisoquinolin-2-yl)acetamide] | >118 | > 10 | 
20 | COc1cc2c(cc1OC)C(Cc1cc(OC)c(OC)c(OC)c1)N(CC(=O)NCc1ccccc1)CC2 (centres unmarked) [Compound 52, N-Benzyl-2-{6,7-dimethoxy-1-[(3,4,5-trimethoxyphenyl)methyl]-1,2,3,4-tetrahydroisoquinolin-2-yl}acetamide] |  | > 10 | 
21 | COc1cc2c(cc1OC)C(Cc1ccc(C)c(C)c1)N(CC(=O)NCc1ccccc1)CC2 (centres unmarked) [Compound 53, N-Benzyl-2-{1-[(3,4-dimethylphenyl)methyl]-6,7-dimethoxy-1,2,3,4-tetrahydroisoquinolin-2-yl}acetamide] |  | > 10 | 
22 | COc1cc2c(cc1OC)C(Cc1ccc3ccccc3c1)N(CC(=O)NCc1ccccc1)CC2 (centres unmarked) [Compound 54, N-Benzyl-2-[6,7-dimethoxy-1-(naphthalen-2-ylmethyl)-1,2,3,4-tetrahydroisoquinolin-2-yl]acetamide] | 6.6 | 1.62 ± 0.23 | 
23 | COc1cc2c(cc1OC)C(Cc1ccc3ncccc3c1)N(CC(=O)NCc1ccccc1)CC2 (centres unmarked) [Compound 55, N-Benzyl-2-[6,7-dimethoxy-1-(quinolin-6-ylmethyl)-1,2,3,4-tetrahydroisoquinolin-2-yl]acetamide] | >23 | > 10 | 
24 | COc1cc2c(cc1OC)C(C(C)c1ccccc1)N(CC(=O)NCc1ccccc1)CC2 (centres unmarked) [Compound 56, N-Benzyl-2-[6,7-dimethoxy-1-(1-phenylethyl)-1,2,3,4-tetrahydroisoquinolin-2-yl]acetamide] |  | > 10 | 
25 | COc1ccc(CCC2c3cc(OC)c(OC)cc3CCN2CC(=O)NCc2ccccc2)cc1OC (centres unmarked) [Compound 60, N-Benzyl-2-{1-[2-(3,4-dimethoxyphenyl)ethyl]-6,7-dimethoxy-1,2,3,4-tetrahydroisoquinolin-2-yl}acetamide] |  | > 10 | 
26 | CCCOc1ccc(CC2c3cc(OCCC)c(OC)cc3CCN2CC(=O)NCc2ccccc2)cc1OC (centres unmarked) [Compound 73, N-Benzyl-2-{6-methoxy-1-[(3-methoxy-4-propoxyphenyl)methyl]-7-propoxy-1,2,3,4-tetrahydroisoquinolin-2-yl}acetamide] |  |  | OX1 selectivity over the OX2 receptor (human OX1 receptors): > 620 fold; spontaneous activity (Sprague-Dawley rats): did not significantly alter the spontaneous activity
27 | Cc1nc2ccc(NC(=O)Nc3ccnc4cccnc34)cc2o1 [SB-334867] |  |  | affinity for OX1 higher than for OX2 (OX1): ~ 50 fold; development of locomotor sensitization to cocaine [1]: block the development of locomotor sensitization to cocaine

Source: PMC4400266 (ACS chemical neuroscience, 2015)
